The conditions of data set [1]: lyophilised peptide, data provided by the manufacturer, ref GenScript, cited from earlier work; for Solubility, Water: C-terminal amide.
Data set [2] concerns activated T-cells (ATC). Put plainly: Chemokine dose-response, activated T-cell (ATC) migration. Conditions: mean of biological replicates (3-6). The data set is classed as cell-based, human. The procedure:
(§1) Cell lines were confirmed mycoplasma free by monthly testing using a MycoAlert^TM kit (LT07-118, Lonza) following the manufacturer’s instructions. THP1 cells: THP1 cells (ECACC 88081201, a human monocyte leukemia cell line[51]) were obtained from ECACC and were cultured in T175 flasks at 0.3-1 × 10^6 cells/mL in Roswell Park Memorial Institute (RPMI) 1640 medium (R0883, Sigma) with 10% FBS (F9665, Sigma) and 5mM L-glutamine (G7513, Sigma), 37 °C, 5% CO2. J:CXCR1 cells: The J:CXCR1 cell line was cultured in the same manner as THP1 cells at 0.15-1 × 10^6 cells per mL[37]. Activated T-cells: T-cells were isolated, activated and expanded as follows. Briefly, density gradient centrifugation using Lymphoprep^TM density gradient medium (07801, […] Technologies) and a SepMate^TM isolation tube (85450, […] Technologies) was used to isolate peripheral blood mononuclear cells from human leukocyte cones. Two rounds of purification using a human CD8 + T-cell isolation kit (480011, BioLegend) were used to isolate CD8 + T-cells from peripheral blood mononuclear cells. Activation of CD8 + T-cells was performed in ImmunoCult^TM-XF T-cell expansion medium (10982, […] Technologies) with an anti-CD3/anti-CD28 T-cell activator at 25 μl/ml (10991, […] Technologies), supplemented with 10 ng/ml recombinant human IL-2 (200-02, PeproTech) with 1% penicillin/streptomycin. T-cells were passaged every 2–3 days in TexMACS medium (130-097-196, Miltenyi Biotec), supplemented with 10 ng/ml human IL-2 (200-05-250, Peprotech) and incubated at 37 °C in 5% CO2. CD8 + T-cells were frozen at day 10-13 after initial activation, at 20×10^6 cell/ml in TexMACS medium supplemented with 10% DMSO (D2650, Sigma) in liquid nitrogen. Activated CD8^+ T-cells were recovered in TexMACs medium at 0.3 × 10^6 cell/ml and incubated at 37 °C in 5% CO2, 24 h prior to use. For buffy coat experiments a mixture of primary human monocytes, granulocytes and lymphocytes was isolated from human buffy coat. Briefly, RBCs were sedimented in HetaSep (07806, […] Technologies) with 1 mL of HetaSep per 5 mL of blood for 15 min at 37 °C. The buffy coat layer was collected from the top and washed in 50 ml MACS buffer (PBS (P4417, Sigma), 0.5% BSA (A7030, Sigma), 0.075% EDTA (E5134, Sigma), pH 7.2), by centrifugation at 2000 g for 10 min at room temperature. The pellet was resuspended in 10 mL of 1x RBC lysis solution (130-094-183, Miltenyi Biotec) and lysed for 10 min at room temperature. The cells were then washed in MACS buffer twice as above. The final pellet was resuspended in 1 mL of MACS buffer per 5 mL of initial blood volume and counted using cell size FSC-H/SSC-H parameters with gate settings previously defined by immunostaining (see below). The leukocytes were then resuspended in assay buffer for cell migration and used within 30 min of isolation.
(§2) Cell counts were determined using an ATTUNE NxT Flow Cytometer with Cytkick autosampler (ThermoFisher), based on cell size parameters FSC-H/SSC-H, with previously defined gate settings. FSC-H/SSC-H gate settings for primary white blood cells from buffy coats were determined using flow cytometry to establish the granulocyte, monocyte and lymphocyte populations (Supplementary Fig. 13). Briefly, cells were labelled with anti-CD3 (Miltenyi Biotec, 130-113-135) to identify the T cell population, anti-CD14 (Miltenyi Biotec, 130-110-578) to identify the monocyte population, and with anti-CD16 (Miltenyi Biotec, 130-113-951) to identify the granulocyte population. Negative control cells were labelled with anti-human IgG1 (Miltenyi Biotec, 130-113-434). All antibodies were allophycocyanin (APC) conjugated. 100,000 white blood cells were added to Eppendorf tubes and centrifuged at 300 g for 3 min. The supernatant was discarded, and the cells resuspended in 98 µL of MACS buffer (1× PBS, 2 mM EDTA and 0.5% BSA, sterile filtered). 2 µl of antibody was added to the cells. […]

Data set [3] has as its system THP1 cells. Put plainly: Chemokine dose-response, THP1 cell migration. Conditions: mean of biological replicates (2-7); for Mean pEC80: 3-parameter log-logistic fit, maximum fixed at 100%. The format is cell-based, human. The procedure:
as §1, §2

Data set [4] deals with panel of 22 biotinylated chemokines. Put plainly: Saturation (NNK) mutagenesis phage-display selection against biotinylated chemokines, enrichment by NGS. Conditions: two-sided Dunnett's test; for log2E compared to parental HD2, CXnC chemokines: 7 CXnC chemokines; for log2E compared to parental HD2, all chemokines: three selection rounds, 22 chemokines; for log2E compared to parental HD2, CC chemokines: 15 CC chemokines. The format is binding, human. An excerpt: 81-mer mutant oligonucleotides replacing NNK at each of the 16 peptide encoding residues were designed with the sequence arms 5’-[…], and […]-3’ at respective ends to enable amplification and cloning. Oligonucleotides (Genscript) were individually amplified and cloned into plasmid prSTOP4Nsi (described in[37]). prSTOP4Nsi was amplified using primers (Sigma): […]
Oligonucleotides were amplified using primers (Sigma): oligo_fwd: 5’-[…] and oligo_rev2: 5’-[…]. The PCR products were cloned into prSTOP4Nsi plasmid using NEB Builder HiFi Assembly (E5520, NEB) following instructions of the manufacturer. The vector pool was used to transform electrocompetent ElectroMAX™ DH5α-E™ cells (11319019, Invitrogen). Plasmid DNA was harvested by MaxiPrep (GeneJet Plasmid Maxiprep Kit (K0491, Thermo Scientific)). DNA was transformed into SS320 phage display electrocompetent cells (60512, Lucigen), following the manufacturer’s protocol. Following electroporation, cells were resuspended in 950 μL recovery media and transferred to 50 mL Falcon tubes. 100 μL 10^11 CFU/mL M13KO7 helper phage (N0315S, NEB) was added, and tubes shaken at 37 °C, 220 RPM, 1 h. 1 mL recovery culture was added to 2YT medium containing +50ug/mL carbenicillin (C9231, Sigma) and 25ug/mL kanamycin (K1377, Sigma), and grown overnight at 37 °C, 220 RPM. Phage was precipitated from culture supernatant by adding 22.5 mL of supernatant to 4.5 mL 20% PEG 8000 (89510, Sigma)/2.5 M NaCl (S9625, Sigma), incubating on ice for 30 min, and centrifuging at 12857 g, 4 °C, 10 min. The phage pellet was resuspended in 1 mL of PBT (PBS (P4417, Sigma), BSA (A7030, Sigma) 0.20%, Tween 20 (P1379, Sigma) 0.05%). Undissolved particulate matter was removed by centrifugation at 15871 g, 4 °C, 10 min. Glycerol (G5516, Sigma, 10% final (v/v) was added, and aliquots stored at −80 °C. A schematic of phage-display library construction is provided in Supplementary Fig. 12.
Phage display screening was performed as described. Experiments were performed in 96-well plates (Greiner Bio-One, 655180). Biotinylated chemokines or complement C5A (1μg, Almac or Protein Foundry) were incubated overnight at 4 °C with shaking at 250 RPM with 5μl streptavidin-coated magnetic beads (Dynabeads™ M-280 Streptavidin, Invitrogen, 11205D) in 100 μl PBS. Chemokine-bound beads were blocked for two hours in 200μl blocking buffer (PBS (phosphate-buffered saline, Sigma, P4417) + 0.2% BSA (bovine serum albumin, Sigma, A7030) with shaking at 250 RPM. Phage library (100μL, 10^10 CFU/mL) was bound to blocked beads for two hours at room temperature with shaking at 250 RPM. Beads were washed 15 times with PT buffer (PBS + 0.05% Tween 20 (Sigma, P1379)) to remove unbound phage then transferred to a fresh plate. Beads were incubated with 100μL phage-resistant Omnimax E. coli (Invitrogen, A10469) at optical density (OD600) 0.6-0.8, shaken at 37 °C for 30 min. Following this 10 µL M13K07 helper phage (NEB, N0315S, final concentration 10^10 CFU/mL) was added and shaken at 37 °C for 45 min. Cells were transferred to 1 mL 2YT medium (at pH7, MP Biomedicals™, 113012031, supplemented with 150 µg/mL carbenicillin (Sigma, C9231) and 75 µg/mL kanamycin (Sigma, K1377) in a 96-deep well block with V-bottom (Corning, CLS3960) and grown with overnight shaking at 37 °C, 200 RPM. Plates were either centrifuged at 2000g (4 °C, 30 min) or transferred to screw cap tubes and pelleted by centrifugation at 4000 g and 4 °C for 15 min. 540 µL of supernatant was transferred to a new 96-deep well plate, 60 µL of 10×PBT (10×PBS + 2% BSA + 0.5% Tween 20) added and stored at 4 °C for subsequent rounds. Phage display was carried out for three rounds. A schematic of phage-display library screening is provided in Supplementary Fig. 12.
We amplified inserts from the input library and from the selected phage population directly from phage by PCR using primers: 5’-[…] and 5’-[…] (Life Technologies). […]

The test system of data set [5] is activated CD8+T-cells (ATC). In words: Activated T-cell (ATC) migration induced by individual chemokines, inhibition by peptide. The format is cell-based, human. The settings on record: peptide 10 uM; chemokines at EC80; Dunnett's test. The procedure: as §1, §2

Ends that are not written are not given here.

“TLETDTFYECPDAYAY [HD2SCR, reference compound]”: in data set [1], the “Solubility, Water” value is “Insoluble”; the “Solubility, DMSO” value is “Soluble”; the “Solubility, PBS” value is reported as “Insoluble”.

As for “CXCL9: human chemokine, Peprotech 300-26”, in data set [2], the “Mean pEC50” value is 7.40 [M] and the “Mean pEC80” value was 7.22 [M].

Regarding EEDDYTAYAPLTCYFT-NH2 [HD2], in data set [1], the “Solubility, Water” value is reported as “Insoluble”; the “Solubility, DMSO” value is given as “Soluble”; the “Solubility, PBS” value is “Insoluble”.

In the case of “CCL19: human chemokine, Peprotech 300-29B”, in data set [2], the “Mean pEC50” value was 7.91 [M] and the “Mean pEC80” value was 7.64 [M].

Turning to “CXCL11: human chemokine, Peprotech 300-46”, in data set [2], the “Mean pEC50” value is 8.25 [M] and the “Mean pEC80” value is 7.99 [M].

Regarding CCL3: human chemokine, Peprotech 300-08, in data set [3], the “Mean pEC80” value was 9.31 [M] and the “Mean pEC50” value is 9.64 [M].

As to CCL5: human chemokine, Peprotech 300-06, in data set [3], the “Mean pEC80” value was 8.36 [M] and the “Mean pEC50” value was 8.65 [M].

In the case of “EEDDYTDYAPLTCYFT [HD2A7D, HD2 point mutant]”, in data set [4], the “log2E compared to parental HD2, CXnC chemokines” value is reported as “significant improvement” and the “log2E compared to parental HD2, all chemokines” value is listed as “significantly improved”.

As for “EEDDYDAYAPLTCYFT [HD2T6D, HD2 point mutant]”, in data set [4], the “log2E compared to parental HD2, CXnC chemokines” value is “significant improvement”; the “log2E compared to parental HD2, CC chemokines” value is on record as “significant improvement”; the “log2E compared to parental HD2, all chemokines” value is “significantly improved”.

Consider “CXCL12: human chemokine, Peprotech 300-28A”, for which, in data set [2], the “Mean pEC50” value was 8.93 [M] and the “Mean pEC80” value was 8.54 [M].

As for CCL7: human chemokine, Peprotech 300-17, in data set [3], the “Mean pEC80” value is 8.02 [M] and the “Mean pEC50” value was 8.37 [M].

In the case of DDDDWWDYAPLTCYFD [HD2CM526], in data set [1], the “Solubility, Water” value is on record as “Insoluble”; the “Solubility, DMSO” value was “Soluble”; the “Solubility, PBS” value is recorded as “Insoluble”.

In the case of DEDDWDDYAPITCYFT-NH2 [HD2CM307], in data set [1], the “Solubility, Water” value is recorded as “Insoluble”; the “Solubility, DMSO” value is listed as “Insoluble”; the “Solubility, HCOOH” value was “Soluble”; the “Solubility, PBS” value is recorded as “Insoluble”.

With DEDDWDAYAPIWCYFT-NH2 [HD2CM304], in data set [1], the “Solubility, Water” value is listed as “Insoluble”; the “Solubility, DMSO” value is on record as “Soluble”; the “Solubility, PBS” value is “Insoluble”.

For the substance “CXCL10: human chemokine, Peprotech 300-12”, in data set [2], the “Mean pEC50” value is 7.87 [M] and the “Mean pEC80” value is 7.50 [M].

In the case of “EEDDYTAYAPITCYFT [HD2L11I, HD2 point mutant]”, in data set [4], the “log2E compared to parental HD2, CC chemokines” value is recorded as “significant improvement” and the “log2E compared to parental HD2, all chemokines” value is on record as “significantly improved”. The “inhibition of CCL19, CCL21, CXCL9, and CXCL11-induced migration of ATCs compared to parental HD2” value in data set [5] is “significant improvement in inhibition”.

As for CCL2: human chemokine, Peprotech 300-04, in data set [3], the “Mean pEC80” value is 8.35 [M] and the “Mean pEC50” value is 8.73 [M].

(Values after publication PMC11969024, “Development of chemokine network inhibitors using combinatorial saturation mutagenesis” (Communications Biology, 2025).)
